From patent publication US12208080B2, “Compositions and methods for modulation of extracellular vesicle release and treatment of neurological disorders” (GEORGE MASON RESEARCH FOUNDATION, INC., priority 2018, dated 2025)

Columns and labels:
[1] = tested on: HIV-1 infected monocytes (U1); assay: Western blot/densitometry of intracellular viral and ESCRT proteins in U1 cells; format: cell-based
Description: FIGS. 15A-15C are graphs and gels showing cannabidiols lower intracellular viral transcription and downstream viral products. U1 cells (1×10^6) were treated with a titration of CBD (1, 5, 10 μM) and THC (1, 5, 10 μg/mL) every day for 5 days. A) Intracellular RNA was isolated and analyzed through RT-qPCR for HIV-1 viral transcripts TAR and env. Each bar represents an average of three independent replicates. B) U1 cells (2×10^6) were treated with a titration of CBD (1, 5, 10 μM) every day for 5 days. Cells pellets were lysed, run through SDS-PAGE, and western blotted for (p-)/NF-κB, autophagosomal markers (p63, LC3), EV biogenesis marker VPS4, viral markers (gp120, Nef, p24), and Actin. C) U1 cells (5×10^6) were treated±CBD (10 μM) and Flavopiridol hydrochloride (50 nM; indicated as Flavo) and incubated for the following time points: 0 minutes, 2 hours and 6 hours. Cells were cross-linked with 1% formaldehyde solution and ChIP-ed for IgG and Pol II. ChIP DNA samples were analyzed via qPCR for TAR and env. Student's t-test was used for statistical analysis, where *p-value≤0.05; **p-value≤0.01, ***p-value≤0.001.
FIGS. 16A-16E are graphs showing normalized densitometry analysis of CBD lowering intracellular […] in HIV-1 infected monocytes. (A) Nef, (B) Pr55, (C) p24, (D) VPS4, and (E) CHMP6 densitometry counts were performed on the Western blot data from FIG. 4B, all of which were normalized to Actin levels.
Laemmli buffer was added to sample cell lysates (10-20 μg) or NT80/82 pellets. Lysates were heated at 95° C. for 3 min and 15 μL of sample was loaded onto a 4-20% Tris/glycine gel (Invitrogen). When analyzing NT80/82 pellets, samples were heated at 95° C. for 3 min, vortexed, and then heated two additional times to release captured material from NT80/82 beads. Following the release of captured cargo, the total sample was then loaded on to a 4-20% Tris-Glycine gel (Invitrogen). Gels were run at 100 V and transferred onto Immobilon PVDF membranes (Millipore) at 50 mA overnight. Membranes were blocked in 5% milk in PBS with 0.1% Tween-20 (PBS-T) for 2 h at 4° C., then incubated overnight at 4° C. in PBS-T with the appropriate primary antibody ((α-p24 (Cat: 4121; NIH AIDS Reagent Program), α-Nef (Cat: 3689; NIH AIDS Reagent Program), α-gp120 (Cat: 522; NIH AIDS Reagent Program), α-CD81 (Cat: EXOAB-CD81A-1; SBI), α-VPS4 (Cat: sc-32922; Santa Cruz Biotechnology), α-CHMP6 (Cat: sc-67231; Santa Cruz Biotechnology), α-Actin (ab-49900; Abcam), α-CD63 (Cat: EXOAB-CD63A-1; Systems Biosciences), α-SQSTM1/p62 (Cat: 5114; Cell Signaling Technology), α-MAP LC3 α/β (Cat: sc-398822; Santa Crux Biotechnology), α-Alix (Cat: sc-49268; Santa Cruz Biotechnology), α-ATG12 (Cat: sc-271688; Santa Cruz Biotechnology), α-Beclin 1 (Cat: sc-48341; Santa Cruz Biotechnology)). Membranes were washed with PBS-T and incubated for 2 h with the indicated HRP-conjugated secondary antibody at 4° C. HRP luminescence was activated with Clarity Western ECL Substrate (Bio-Rad) and visualized by the Molecular Imager ChemiDoc Touch system (Bio-Rad).
ImageJ software was used to conduct densitometry analysis on the kinase and western blot images. Background measurements were deducted from each lane to account for exposure, followed by normalization of each lane to each respective Actin measurements. […] Percent changes were calculated by subtracting normalized lane measurements from the normalized control lane.
This is potentially due innate differences in the abundance of these mRNAs. […]

[2] = tested on: autophagy proteins (p62 and LC3) in U1 cells; assay: Autophagy proteins over time in U1 cells and their EVs (Western blot); format: cell-based
Description: FIGS. 18A-18B are gels showing CBD promotes autophagy turnover, resulting in a decrease in extracellular autophagosomal secretion. A) U1 cells (1×10^6) were treated±CBD (10 μM) for the following incubation periods: 0, 6, 24, and 48 hours. Cells were pelleted and lysed, exosomes from supernatants were enriched with NT80/82 beads overnight at 4° C. Samples were run through SDS-PAGE and western blotted for autophagy proteins (p62 and LC3), and Actin. B) U1 cells (1×10^6) were treated±10 μM CBD (every day), Rapamycin (50 nM), INK128 (50 nM), Bafilomycin A1 (50 nM), SB 203580 (20 μM), Wortmannin (2 nM) for a 5-day incubation period. Cells were pelleted and lysed, exosomes from supernatants were enriched using NT80/82 beads overnight at 4° C. Samples were run through SDS-PAGE and western blotted for autophagy proteins (p62, LC3, ATG12-ATG5, ATG12, Beclin-1), and Actin.
FIGS. 19A-19E are graphs showing normalized densitometry analysis of CBD treatment of HIV-1 infected monocytes over time and autophagy. Intracellular (A) p62, (B) LC3 I, and (C) LC3 II levels, and extracellular (D) p62, and (E) LC3 I levels were counted on the Western blot data from FIG. 5A through densitometry analysis, followed by normalization to Actin levels.
We have previously described a complex relationship between the intracellular autophagy pathway, secretory autophagy pathway, and EVs, where regulation of the autophagy pathway in infected cells can result in the blocking of viral protein degradation and, in turn, the export of viral products through EVs. Based on this, we next asked whether CBD had any effect on EV release by examining the secretory autophagy pathway. In order to evaluate the levels of intracellular autophagy proteins in HIV-1 infected cells, U1 cells were treated with CBD (10 μM) for 0, 6, 24, and 48 hours, followed by Western blot analysis for autophagosomal markers, p62 and LC3 I/II (FIG. 18A). […] In order to examine any alterations that CBD might have on secretory autophagy in HIV-1 infected monocytes, EVs were enriched from the supernatants using NT80/82 and analyzed by Western blot for changes in secreted autophagosome proteins. […] This is in line with numerous studies which have shown the HIV-1 viral proteins Tat and Nef to be involved in autophagy deregulation in infected cells.

[3] = 10 μM every day for 5 days, FIG. 16
[4] = CBD 1, 5, 10 μM every day for 5 days

Structure (SMILES): C=C(C)[C@@H]1CCC(C)=C[C@H]1c1c(O)cc(CCCCC)cc1O [CBD, 2-[1R-3-methyl-6R-(1-methylethenyl)-2-cyclohexen-1-yl]-5-pentyl-1,3-benzenediol]
- reduction in intracellular Nef (densitometry) [1, 3]: 62%
- reduction in intracellular Pr55 (densitometry) [1, 3]: 99%
- reduction in intracellular p24 (densitometry) [1, 3]: 76%
- intracellular CHMP6 (ESCRT-III) [1, 4]: slight increase
- intracellular VPS4 [1, 4]: slight increase
- LC3 I in secreted EVs ([2]; 10 μM, 6, 24, 48 hours vs untreated): overall lower level of LC3 I
- intracellular LC3 II ([2]; 10 μM, 6- and 24-hour vs controls): higher levels of LC3 II
- extracellular (EV) p62 ([2]; 10 μM, from the 6-hour time point onwards vs untreated): lower p62 levels
- intracellular p62 ([2]; 10 μM, starting at 24-hour, peaking at 48-hour, FIG. 18A): time dependent decrease
- intracellular LC3 I ([2]; 10 μM, up to 24 hours vs untreated): decrease in LC3 I levels
